Measurements taken from patent US5804603A, “Synthesized β-adrenergic blockers derivatives of guaiacol” (National Science Council, priority 1995, dated 1998).
Where two headings read alike, the source gives them in different places.

Legend:
[1] = test system: heart rate and blood pressure; assay: Heart rate and blood pressure changes of rats induced by guaiacoxypropanolamines; assay type: in vivo; conditions: 1.0 mg/kg iv, means ± SE (n = 8)
[2] = target: T1, Isolated Guinea Pig Atria (Cavia porcellus, UniProt H0W3H1); assay: pA2 on isolated guinea pig atria; assay type: cell-based; conditions: for Kb / pA2, positive chronotropic / pA2, positive inotropic: isolated guinea pig atria; for Potency ratio (PR), positive chronotropic / Potency ratio (PR), positive inotropic: with respect to propranolol
T1 construct: Isolated Guinea Pig Atria; from tissue; host or cells: guinea pig atria (isolated organ)
T1 sequence (H0W3H1 1-470): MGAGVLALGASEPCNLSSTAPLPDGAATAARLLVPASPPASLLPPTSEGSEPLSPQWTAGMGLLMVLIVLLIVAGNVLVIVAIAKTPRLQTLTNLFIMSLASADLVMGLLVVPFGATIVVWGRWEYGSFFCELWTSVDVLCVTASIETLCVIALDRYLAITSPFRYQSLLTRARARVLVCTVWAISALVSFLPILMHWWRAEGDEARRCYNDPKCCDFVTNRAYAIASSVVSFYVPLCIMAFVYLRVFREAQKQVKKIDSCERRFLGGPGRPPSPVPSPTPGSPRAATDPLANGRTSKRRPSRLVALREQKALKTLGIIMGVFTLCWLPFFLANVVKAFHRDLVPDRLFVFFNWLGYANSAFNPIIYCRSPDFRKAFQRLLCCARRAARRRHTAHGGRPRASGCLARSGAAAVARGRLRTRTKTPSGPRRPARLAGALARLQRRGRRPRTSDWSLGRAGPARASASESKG
Text: The determination of the pA2 is made from experiments in which a fixed concentration of the antagonist is used along with graded concentrations of an agonist acting on the same receptor. The presence of the antagonist shifts the agonist dose-response curve to the right.

[3] = read-out: pA2, positive chronotropic (converted)
[4] = read-out: pA2, positive inotropic (converted)

Structure (SMILES)	Kb [2, 3] [nM]	Kb [2, 4] [nM]	Potency ratio (PR), positive chronotropic [2]	Potency ratio (PR), positive inotropic [2]	pA2, positive chronotropic [2]	pA2, positive inotropic [2]	change in BP ([1]; 5 min after dosing) [mmHg]	change in HR ([1]; 5 min after dosing) [beats/min]	change in BP ([1]; 10 min after dosing) [mmHg]	change in HR ([1]; 10 min after dosing) [beats/min]	change in BP ([1]; 15 min after dosing) [mmHg]	change in HR ([1]; 15 min after dosing) [beats/min]	change in BP ([1]; 30 min after dosing) [mmHg]	change in HR ([1]; 30 min after dosing) [beats/min]	change in BP ([1]; 60 min after dosing) [mmHg]	change in HR ([1]; 60 min after dosing) [beats/min]
CCCCCCCCC(=O)NCc1ccc(OCC(O)CNC2CC2)c(OC)c1 (stereo not shown) [NH-c-C3 H5, N-[4-o-(2-hydroxy-3-(cyclopropylamino)propoxy)-3-methoxybenzyl]-nonamide]							-0.11 ± 1.09	-47.67 ± 8.88	3.11 ± 2.78	-38.89 ± 9.47	3.89 ± 2.92	-23.67 ± 10.01	3.67 ± 4.10	-11.89 ± 8.73	2.22 ± 2.32	-2.67 ± 4.14
CCCCCCCCC(=O)NCc1ccc(OCC(O)CNC2CCCCC2)c(OC)c1 (stereo not shown) [NH-c-C6 H11, N-[4-o-(2-hydroxy-3-(cyclohexylamino)propoxy)-3-methoxybenzyl]-nonamide]							-4.11 ± 2.89	-32.33 ± 15.44	-4.22 ± 2.29	-28.44 ± 16.54	-3.67 ± 2.39	-11.67 ± 9.26	1.33 ± 2.69	-1.78 ± 8.96	0.67 ± 2.45	2.78 ± 9.64
CCCCCCCCC(=O)NCc1ccc(OCC(O)CNC(C)C)c(OC)c1 (stereo not shown) [NH-i-C3 H7, N-[4-o-(2-hydroxy-3-(isopropylamino)propoxy)-3-methoxybenzyl]-nonamide]	17	8.51	0.45	0.45			-0.44 ± 2.05	-50.22 ± 7.29	-1.22 ± 2.29	-40.78 ± 7.64	-2.89 ± 2.03	-35.44 ± 7.32	-6.67 ± 2.51	-32.67 ± 9.24	-1.33 ± 0.98	-20.00 ± 6.15
CCCCCCCCC(=O)NCc1ccc(OCC(O)CNC(C)CC)c(OC)c1 (stereo not shown) [NH-s-C4 H9, N-[4-o-(2-hydroxy-3-(sec-butylamino)propoxy)-3-methoxybenzyl]-nonamide]	120	22.4	0.07	0.17			4.11 ± 2.76	-38.56 ± 11.30	4.89 ± 3.37	-35.44 ± 12.46	3.33 ± 3.74	-32.33 ± 11.96	-0.88 ± 3.11	-25.11 ± 9.49	1.22 ± 1.47	-9.56 ± 7.03

Further lines, with some results ahead:

Kb [2, 3] [nM]	Kb [2, 4] [nM]	Potency ratio (PR), positive chronotropic [2]	Potency ratio (PR), positive inotropic [2]	pA2, positive chronotropic [2]	pA2, positive inotropic [2]	Structure (SMILES)	change in BP ([1]; 5 min after dosing) [mmHg]	change in HR ([1]; 5 min after dosing) [beats/min]	change in BP ([1]; 10 min after dosing) [mmHg]	change in HR ([1]; 10 min after dosing) [beats/min]	change in BP ([1]; 15 min after dosing) [mmHg]	change in HR ([1]; 15 min after dosing) [beats/min]	change in BP ([1]; 30 min after dosing) [mmHg]	change in HR ([1]; 30 min after dosing) [beats/min]	change in BP ([1]; 60 min after dosing) [mmHg]	change in HR ([1]; 60 min after dosing) [beats/min]
117	26.9	0.06	0.14			CCCCCCCCC(=O)NCc1ccc(OCC(O)CNCC(C)C)c(OC)c1 (stereo not shown) [NH-i-C4 H9, N-[4-o-(2-hydroxy-3-(iso-butylamino)propoxy)-3-methoxybenzyl]-nonamide]	-2.75 ± 2.29	-39.88 ± 8.60	1.63 ± 2.07	-35.25 ± 7.98	1.63 ± 1.71	-27.13 ± 7.76	2.00 ± 1.86	4.13 ± 8.20	0.25 ± 1.91	3.13 ± 7.90
		0.05	0.21	6.79 ± 0.01	7.75 ± 0.07	CCCCCCCCC(=O)NCc1ccc(OCC(O)CNCCC)c(OC)c1 (stereo not shown) [NH-n-C3 H7, N-[4-o-(2-hydroxy-3-(n-propylamino)propoxy)-3-methoxybenzyl]-nonamide]	-1.78 ± 1.71	-42.56 ± 7.65	-2.56 ± 1.47	-35.33 ± 6.05	-3.11 ± 1.81	-32.00 ± 5.25	-2.44 ± 1.66	-14.11 ± 5.16	-0.56 ± 0.50	-6.89 ± 4.32
58.9	53.7	0.13	0.07			CCCCCCCCC(=O)NCc1ccc(OCC(O)CNCCCC)c(OC)c1 (stereo not shown) [NH-n-C4 H9, N-[4-o-(2-hydroxy-3-(n-butylamino)propoxy)-3-methoxybenzyl]-nonamide]	-0.22 ± 1.74	-40.00 ± 3.74	-1.22 ± 1.59	-33.78 ± 5.08	-1.22 ± 1.77	-26.22 ± 6.56	0.11 ± 1.54	-15.33 ± 5.24	3.33 ± 2.82	-3.67 ± 2.55
		0.12	0.14	7.19 ± 0.02	7.55 ± 0.04	CCCCCCCCC(=O)NCc1ccc(OCC(O)CNCCCCC)c(OC)c1 (stereo not shown) [NH-n-C5 H11, N-[4-o-(2-hydroxy-3-(n-pentylamino)propoxy)-3-methoxybenzyl]-nonamide]	-4.67 ± 1.71	-25.11 ± 5.81	-1.67 ± 1.87	-23.33 ± 2.41	-0.88 ± 3.00	-10.22 ± 2.38	3.67 ± 2.66	-5.78 ± 7.89	2.44 ± 1.96	-6.56 ± 4.38
933	66.1	0.01	0.06			CCCCCCCCC(=O)NCc1ccc(OCC(O)CNCCCCCC)c(OC)c1 (stereo not shown) [NH-n-C6 H13, N-[4-o-(2-hydroxy-3-(n-hexylamino)propoxy)-3-methoxybenzyl]-nonamide]	-2.22 ± 1.42	-35.56 ± 8.71	-2.89 ± 1.61	-24.11 ± 3.31	-4.44 ± 2.93	-14.89 ± 7.10	-2.11 ± 2.77	-12.67 ± 6.59	1.89 ± 1.13	-8.00 ± 5.64
